What all share (assay type): binding
The target of assay [1] is T1, siderocalin (Scn) (Homo sapiens, UniProt P80188).
T1 construct: gene LCN2
As to the kind of experiment: tryptophan fluorescence quenching titration of metal-free ligand, pH […].

In assay [2] the target is T1, siderocalin (Scn). Kind of assay: tryptophan fluorescence quenching titration, pH […]; crystal structure at […] Å.
Assay [3] addresses T1, siderocalin (Scn). The description is as above. This is another data set of the same source.

T1 sequence (P80188 21-198): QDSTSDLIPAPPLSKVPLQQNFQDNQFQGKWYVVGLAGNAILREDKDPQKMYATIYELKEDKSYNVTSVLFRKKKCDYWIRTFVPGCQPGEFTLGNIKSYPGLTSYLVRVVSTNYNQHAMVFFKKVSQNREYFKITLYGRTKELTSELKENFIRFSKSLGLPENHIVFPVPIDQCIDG

In turn, `O=C(NCCCN(CCCCN(CCCNC(=O)c1cccc(=O)n1O)C(=O)c1cccc(=O)n1O)C(=O)c1cccc(=O)n1O)c1cccc(=O)n1O` [HOPO, 3,4,3-LI(1,2-HOPO)] returned a Kd at siderocalin (Scn) [1] of 43 nM.

The compound `O=C(NCCCN(CCCCN(CCCNC(=O)c1cccc(=O)n1O)C(=O)c1cccc(=O)n1[O-])C(=O)c1cccc(=O)n1[O-])c1cccc(=O)n1[O-].[Ac+3]` [[Ac^III(HOPO)]^1–] had a Kd on siderocalin (Scn) [2] of 6 nM.

On siderocalin (Scn) [3], `O=C(NCCCN(CCCCN(CCCNC(=O)c1cccc(=O)n1O)C(=O)c1cccc(=O)n1[O-])C(=O)c1cccc(=O)n1[O-])c1cccc(=O)n1[O-].[La+3]` [[La^III(HOPO)]^1–] returned a dissociation constant Kd of 20 nM.

The term Kd denotes a measure of binding affinity in units of concentration.

Source of the values: PMC11251196, “Actinium chelation and crystallization in a macromolecular scaffold” (Nature Communications, 2024).
